Measured values as given in the supplement of paper PMC10307832.

What was measured:
Assay in all cases: relative viability (nuclei count vs DMSO), 5 days (fraction); higher = more cells survive
[1] = compound: CC(=O)O[C@@]12CO[C@@H]1C[C@H](O)[C@@]1(C)C(=O)[C@H](O)C3=C(C)[C@@H](OC(=O)[C@H](O)[C@@H](NC(=O)OC(C)(C)C)c4ccccc4)C[C@@](O)([C@@H](OC(=O)c4ccccc4)[C@H]21)C3(C)C [Docetaxel]
Method in brief: (§1)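 Following overnight incubation at 37 °C, lung cancer cell lines in 1536-well plates were pinned with five library-drug doses (not always all listed) in √10 steps on vehicle-anchored plates. The cells then spent 5 days without medium change before a combined fix, permeabilisation and Hoechst stain, 4× imaging and MetaXpress nuclear counts. Viability is the treated-to-vehicle ratio of nuclei, taken as the median across plates. Only plates with control CV below 25% and at least one doubling passed.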

[2] = compound: COc1cc2nccc(Oc3ccc(NC(=O)Nc4cc(C)on4)c(Cl)c3)c2cc1OC [Tivozanib]
Method in brief: as §1

[3] = compound: Cc1cnc(-c2cnc(NCCNc3ccc(C#N)cn3)nc2-c2ccc(Cl)cc2Cl)[nH]1
Method in brief: as §1

[4] = compound: Cc1sc2c(c1C)C(c1ccc(Cl)cc1)=N[C@@H](CC(=O)OC(C)(C)C)c1nnc(C)n1-2 [JQ1]
Method in brief: as §1

[5] = compound: Nc1ccn([C@@H]2O[C@H](CO)[C@@H](O)[C@@H]2O)c(=O)n1 [Cytarabine]
Method in brief: as §1

[6] = compound: O=C(O)CCCCC(CCSCc1ccccc1)SCc1ccccc1 [CPI-613]
Method in brief: as §1

[7] = compound: O=c1[nH]c2ccccc2n1C1CCN(CCCC(c2ccc(F)cc2)c2ccc(F)cc2)CC1 [Pimozide]
Method in brief: as §1

Row | Cell Line | relative viability ([1]; 0.0002 µM) | relative viability ([1]; 0.000632 µM) | relative viability ([1]; 0.002 µM) | relative viability ([1]; 0.006325 µM) | relative viability ([1]; 0.02 µM) | relative viability ([2]; 0.005 µM) | relative viability ([2]; 0.01581 µM) | relative viability ([2]; 0.05 µM) | relative viability ([2]; 0.1581 µM) | relative viability ([2]; 0.5 µM) | relative viability ([3]; 0.08 µM) | relative viability ([3]; 0.253 µM) | relative viability ([3]; 0.8 µM) | relative viability ([3]; 2.53 µM) | relative viability ([4]; 0.04 µM) | relative viability ([4]; 0.1265 µM) | relative viability ([4]; 0.4 µM) | relative viability ([4]; 1.265 µM) | relative viability ([4]; 4 µM) | relative viability ([5]; 0.005 µM) | relative viability ([5]; 0.01581 µM) | relative viability ([5]; 0.05 µM) | relative viability ([5]; 0.1581 µM) | relative viability ([5]; 0.5 µM) | relative viability ([6]; 5 µM) | relative viability ([6]; 15.81 µM) | relative viability ([6]; 50 µM) | relative viability ([6]; 158.11 µM) | relative viability ([6]; 500 µM) | relative viability ([7]; 0.08 µM) | relative viability ([7]; 0.253 µM) | relative viability ([7]; 0.8 µM) | relative viability ([7]; 2.53 µM) | relative viability ([7]; 8 µM)
1 | ChaGo-K-1 | 1 | 0.691 | 0.636 | 0.349 | 0.196 | 0.979 | 0.956 | 0.97 | 0.909 | 0.921 | 0.987 | 0.854 | 1.02 | 0.939 | 0.93 | 0.845 | 0.956 | 0.901 | 0.743 | 0.687 | 0.681 | 0.509 | 0.383 | 0.283 | 0.918 | 0.981 | 0.975 | 0.705 | 0.411 | 1.08 | 0.95 | 0.975 | 0.96 | 0.961
2 | EBC-1 | 0.89 | 0.693 | 0.241 | 0.25 | 0.152 | 0.951 | 0.96 | 0.979 | 0.929 | 0.918 | 0.982 | 0.914 | 0.975 | 0.987 | 0.922 | 0.596 | 0.372 | 0.138 | 0.141 | 0.817 | 0.816 | 0.623 | 0.478 | 0.336 | 0.962 | 0.823 | 0.828 | 0.661 | 0.556 | 0.996 | 0.94 | 0.899 | 0.901 | 0.942
3 | EKVX | 0.97 | 0.874 | 0.462 | 0.262 | 0.176 | 0.908 | 0.989 | 1.09 | 0.939 | 0.971 | 1 | 0.824 | 0.975 | 0.835 | 0.997 | 0.781 | 0.939 | 0.827 | 0.769 | 1.02 | 0.913 | 0.694 | 0.364 | 0.362 | 0.935 | 0.959 | 0.932 | 0.628 | 0.935 |  | 0.906 | 0.923 | 0.978 | 0.984
4 | EMC-BAC-2 | 0.905 | 0.736 | 0.483 | 0.304 | 0.268 | 0.935 | 1.06 | 1 | 0.752 | 0.792 | 1.02 | 0.96 | 0.923 | 0.897 | 0.922 | 0.667 | 0.842 | 0.519 | 0.48 | 1.04 | 0.866 | 0.492 | 0.349 | 0.257 | 0.973 | 0.875 | 0.982 | 0.782 | 0.189 | 0.969 | 0.933 | 0.884 | 0.933 | 0.955
5 | EPLC-272H | 0.878 | 0.533 | 0.244 | 0.104 | 0.071 | 0.908 | 0.885 | 0.947 | 0.731 | 0.635 | 1.02 | 0.836 | 0.937 | 0.962 | 0.801 | 0.797 | 0.789 | 0.433 | 0.289 | 0.768 | 0.572 | 0.487 | 0.331 | 0.173 | 0.9 | 0.834 | 0.839 | 0.783 | 0.449 | 0.852 | 0.896 | 0.842 | 0.7 | 0.61
6 | H3255 | 0.899 | 0.978 | 0.657 | 0.336 | 0.3 | 0.922 | 0.985 | 0.882 | 0.828 | 0.926 | 1.02 | 0.887 | 0.994 | 0.999 | 0.874 | 0.665 | 0.912 | 0.456 | 0.336 | 0.96 | 0.922 | 0.763 | 0.695 | 0.591 | 0.94 | 0.803 | 0.984 | 0.92 | 0.888 |  | 0.913 | 0.907 | 0.907 | 0.948
7 | HARA | 0.796 | 0.46 | 0.197 | 0.188 | 0.0932 | 0.928 | 0.963 | 0.995 | 0.937 | 0.976 | 1.01 | 0.737 | 0.859 | 0.833 | 0.867 | 0.569 | 0.533 | 0.322 | 0.288 | 0.788 | 0.716 | 0.397 | 0.24 | 0.221 | 0.909 | 0.862 | 0.984 | 0.6 | 0.0433 | 0.812 | 0.995 | 0.876 | 0.952 | 0.908
8 | HCC-15 | 0.8 | 0.536 | 0.229 | 0.257 | 0.149 | 0.962 | 0.922 | 0.949 | 1.07 | 0.89 | 1.06 | 0.686 | 0.953 | 0.892 | 0.97 |  | 0.859 | 0.656 | 0.6 | 1.07 | 0.988 | 0.966 | 0.828 | 0.547 | 0.96 | 0.914 | 0.908 | 0.465 | 0.264 | 1.05 | 0.965 | 0.725 | 0.961 | 0.9
9 | HCC-44 | 0.956 | 0.949 | 0.587 | 0.296 | 0.198 | 0.936 | 0.949 | 0.976 | 1.02 | 0.87 | 0.986 | 0.867 | 1.07 | 1.08 | 0.977 | 0.776 | 0.778 | 0.438 | 0.308 | 0.989 | 0.882 | 0.643 | 0.614 | 0.356 | 1.01 | 0.958 | 1.03 | 0.869 | 0.51 | 0.986 | 0.95 | 0.876 | 0.911 | 0.952
